From patent US11696913B2, “Prolonged ectoparasite-controlling agent for animal” (MITSUI CHEMICALS AGRO, INC., priority 2017, dated 2023) come the findings set out here.

Structures are written as SMILES.

Test [1] deals with Ixodes ricinus. The test is described as follows: In vitro contact test with adult hard ticks (Ixodes ricinus). As to conditions: read-out: acaricidal activity; for pest or weed control at 0.2 µg/cm2, 0.2 µg/cm2: dose 0.2 μg/cm^2, 48 h; for pest or weed control at 1 µg/cm2, 1 µg/cm2: dose 1 μg/cm^2, 48 h; for pest or weed control at 5 µg/cm2, 5 µg/cm2: dose 5 μg/cm^2, 48 h. The gist of the method: (§1)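 Adult R. sanguineus, I. ricinus, D. variabilis or A. americanum nymphs exposed in glass vials coated with compound from acetone (900 ppm gives 5 μg/cm^2). Held 48 h at room temperature (R. sanguineus) or 21° C., 85% rel. hum.; then heated at 45-50° C. ≤5 min, motionless or uncoordinated ticks scored dead/moribund.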

Test [2] deals with Ctenocephalides felis. Nature of the test: Topical treatment in-vivo test with cat flea on rats. As to conditions: topical spot-on. The method, then:
(§2) Topical Treatment In-Vivo Test with American Dog Tick Nymph and Cat Flea on Rats
(§3) Type of study and overall study design: The method is a randomized non-blinded efficacy study in accordance with European animal welfare requirements. Rats (Rattus norvegicus) were randomized based on pre-treatment flea counts. The efficacy of treatment was determined by comparison of the flea and tick counts of different treatment groups versus the placebo-treated control group. The experimental unit was the individual study animal.
(§4) Method and route of administration: The compound was applied in a suitable solvent and carrier (more specifically, added to the following mixture: 33.3% by weight propylene carbonate, […] N-methylpyrrolidone, 0.1% by weight BHA, 0.05% by weight BHT) considering the individual body weight as topical spot-on between the shoulder blades directly onto the skin.
(§5) Experimental infestation: On the day of treatment and weekly thereafter, 30 ticks (D. variabilis nymphs) were released onto the back of each rat, and 30 fleas (C. felis) were released onto the back of each rat 24 h later.
(§6) Tick and Flea counting: Rats were thoroughly examined and ticks and fleas were manually removed 48 h (+4 h) after tick infestation and 24 h after flea infestation. Live fleas and live attached engorged ticks were counted. In non-evident cases, engorgement status was evaluated by squeezing the tick on a filter paper to find traces of blood as sign for engorgement.

For test [3], the system named is Amblyomma americanum. The test is described as follows: In vitro contact test with hard ticks (Amblyomma americanum nymphs). Conditions: read-out: acaricidal activity; for pest or weed control at 0.2 µg/cm2, 0.2 µg/cm2: dose 0.2 μg/cm^2, 48 h; for pest or weed control at 1 µg/cm2, 1 µg/cm2: dose 1 μg/cm^2, 48 h. The gist of the method:
as §1

Test [4] relates to Spodoptera litura. The test is described as follows: Insecticidal testing against common cutworm. As to conditions: foliar, 144 h, concentration 100 ppm, cabbage leaf dip, second-stage larvae, after 6 days, read-out: pesticidal rate. The format is in vivo. An excerpt:
Insecticidal Testing Against Common Cutworm (Spodoptera litura)

The test system of test [5] is Plutella xylostella. Nature of the test: Insecticidal testing against diamondback moth. The format is in vivo. Conditions: foliar, 144 h, concentration 100 ppm, cabbage leaf dip, third-stage larvae, after 6 days, read-out: pesticidal rate. An excerpt:
Insecticidal Testing Against Diamondback Moth (Plutella xylostella)

Test [6] concerns Laodelphax striatellus. The test is described as follows: Insecticidal testing against small brown planthopper. The format is in vivo. Conditions: 144 h, concentration 100 ppm, sprayed rice seedlings, after 6 days, read-out: pesticidal rate. The method, boiled down:
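Acetone solution of compound at a set concentration sprayed onto rice seedlings, air-dried, then exposed to 10 planthoppers (one group). Held at 25° C; survival rate recorded after 6 days.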

For test [7], the system named is Dermacentor variabilis. Nature of the test: Topical treatment in-vivo test with American dog tick nymph on rats. As to conditions: topical spot-on, 25 mg/kg. The protocol: as §2, §3, §4, §5, §6

With `CN(C(=O)c1ccc(F)cc1)c1cccc(C(=O)Nc2c(I)cc(C(F)(C(F)(F)F)C(F)(F)F)cc2C(F)(F)F)c1F` [Compound 24], the pest or weed control at 0.2 µg/cm2, 0.2 µg/cm2 in test [1] and in test [3] was 90% throughout. Further, the pest or weed control at 1 µg/cm2, 1 µg/cm2 in test [1] and in test [3] was 90% each time. Further, the pest or weed control at 5 µg/cm2, 5 µg/cm2 in test [1] came to 90%. Also, the “Geometric mean percent reduction in live flea (Ctenocephalides felis) counts compared to untreated control rats” value in test [2] (10 mg/kg, SD 2) came to 100%; in test [2] (10 mg/kg, SD 9), 99%; in test [2] (10 mg/kg, SD 16) it was 97%; in test [2] (10 mg/kg, SD 23) it was 96%; in test [2] (10 mg/kg, SD 30) it was 77%.

With `CN(C(=O)c1ccc(F)cc1)c1cccc(C(=O)Nc2c(I)cc(C(F)(C(F)(F)F)C(F)(F)C(F)(F)F)cc2C(F)(F)F)c1F` (centres unmarked) [Compound 37], in test [3], the pest or weed control at 0.2 µg/cm2, 0.2 µg/cm2 turned out to be 90% and the pest or weed control at 1 µg/cm2, 1 µg/cm2 worked out at 90%.

Take `CN(C(=O)c1ccc(F)c(F)c1)c1cccc(C(=O)Nc2c(I)cc(C(F)(C(F)(F)F)C(F)(F)F)cc2C(F)(F)F)c1F` [Compound 51]: the pest or weed control at 100 ppm in test [4], in test [5] and in test [6] was at least 70% in each case. Besides, the “Geometric mean percent reduction in live tick (Dermacentor variabilis) counts compared to untreated control rats” value was 82% in test [7] (SD 2); 95% in test [7] (SD 9); 80% in test [7] (SD 16); 73% in test [7] (SD 23); 55% in test [7] (SD 30). Also, the “Geometric mean percent reduction in live flea (Ctenocephalides felis) counts compared to untreated control rats” value in test [2] (25 mg/kg, SD 2) was 100%; in test [2] (25 mg/kg, SD 9), 98%; in test [2] (25 mg/kg, SD 16), 91%; in test [2] (25 mg/kg, SD 23), 95%; in test [2] (25 mg/kg, SD 30), 93%. Besides, the pest or weed control at 1 µg/cm2, 1 µg/cm2 in test [3] was found to be 90%.

Turning to `CN(C(=O)c1ccc(C(F)(F)F)nc1)c1cccc(C(=O)Nc2c(I)cc(C(F)(C(F)(F)F)C(F)(F)F)cc2C(F)(F)F)c1F` [Compound 66, N-(2-fluoro-3-((2-iodo-4-(perfluoropropan-2-yl)-6-(trifluoromethyl)phenyl)carbamoyl)phenyl)-N-methyl-6-(trifluoromethyl)nicotinamide], the pest or weed control at 100 ppm in test [4], in test [5] and in test [6] was at least 70% each time.

As for `O=C(Nc1cccc(C(=O)Nc2c(I)cc(C(F)(C(F)(F)F)C(F)(F)F)cc2C(F)(F)F)c1F)c1ccc(C(F)(F)F)nc1` [Compound 67, N-(2-fluoro-3-((2-iodo-4-(perfluoropropan-2-yl)-6-(trifluoromethyl)phenyl)carbamoyl)phenyl)-6-(trifluoromethyl)nicotinamide], the pest or weed control at 100 ppm in test [4], in test [5] and in test [6] was at least 70% throughout. Further, the pest or weed control at 0.2 µg/cm2, 0.2 µg/cm2 in test [1] and in test [3] was 90% throughout. The pest or weed control at 1 µg/cm2, 1 µg/cm2 in test [1] and in test [3] was 90% each time. In test [1], the pest or weed control at 5 µg/cm2, 5 µg/cm2 amounted to 90%. Also, the “Geometric mean percent reduction in live tick (Dermacentor variabilis) counts compared to untreated control rats” value amounted to 57% in test [7] (SD 2); 98% in test [7] (SD 9); 100% in test [7] (SD 16); 100% in test [7] (SD 23); 77% in test [7] (SD 30). Besides, the “Geometric mean percent reduction in live flea (Ctenocephalides felis) counts compared to untreated control rats” value is on record as 98% in test [2] (25 mg/kg, SD 2); 93% in test [2] (25 mg/kg, SD 9); 97% in test [2] (25 mg/kg, SD 16); 81% in test [2] (25 mg/kg, SD 23); 79% in test [2] (25 mg/kg, SD 30).

In the case of `CN(C(=O)c1ccc(F)cc1)c1cccc(C(=O)Nc2c(I)cc(C(F)(C(F)(F)F)C(F)(F)F)cc2OC(F)(F)F)c1F` [Compound 74], the pest or weed control at 100 ppm in test [4], in test [5] and in test [6] was at least 70% in each case. Besides, the pest or weed control at 1 µg/cm2, 1 µg/cm2 in test [1] and in test [3] was 90% throughout. Moreover, the pest or weed control at 5 µg/cm2, 5 µg/cm2 in test [1] was found to be 90%. In test [3], the pest or weed control at 0.2 µg/cm2, 0.2 µg/cm2 was 90%.

For `CN(C(=O)c1ccc(F)cc1)c1cccc(C(=O)Nc2c(I)cc(C(F)(C(F)(F)F)C(F)(F)C(F)(F)F)cc2OC(F)F)c1F` (centres unmarked) [Compound 103], the pest or weed control at 100 ppm in test [4], in test [5] and in test [6] was at least 70% each time. The pest or weed control at 0.2 µg/cm2, 0.2 µg/cm2 in test [1] and in test [3] was 90% in each case. In addition, the pest or weed control at 5 µg/cm2, 5 µg/cm2 in test [1] was 90%. Also, the pest or weed control at 1 µg/cm2, 1 µg/cm2 in test [3] came out at 90%.

With `CN(C(=O)c1ccc(F)nc1)c1cccc(C(=O)Nc2c(I)cc(C(F)(C(F)(F)F)C(F)(F)F)cc2C(F)(F)F)c1F` [Compound 115, 6-fluoro-N-(2-fluoro-3-((2-iodo-4-(perfluoropropan-2-yl)-6-(trifluoromethyl)phenyl)carbamoyl)phenyl)-N-methylnicotinamide], the pest or weed control at 100 ppm in test [4], in test [5] and in test [6] was at least 70% each time. Also, the pest or weed control at 5 µg/cm2, 5 µg/cm2 in test [1] came out at 90%. Besides, in test [3], the pest or weed control at 0.2 µg/cm2, 0.2 µg/cm2 amounted to 90%. In test [3], the pest or weed control at 1 µg/cm2, 1 µg/cm2 turned out to be 90%.

Turning to `CN(C(=O)c1ccc(C(F)(F)F)nc1)c1cccc(C(=O)Nc2c(I)cc(C(F)(C(F)(F)F)C(F)(F)C(F)(F)F)cc2C(F)(F)F)c1F` (centres unmarked) [Compound 119], the pest or weed control at 100 ppm in test [4], in test [5] and in test [6] was at least 70% each time. Besides, in test [3], the pest or weed control at 1 µg/cm2, 1 µg/cm2 was 90%.
